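Test compounds were applied to cells in 96-well plates for 48 hours at 5 doses. The concentration for full growth arrest is given as TGI.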
Legend:
Assay in all cases: NCI anticancer screen, dose series, 48 h
M14 melanoma = test system: M14 melanoma
UACC-62 melanoma = test system: UACC-62 melanoma
OVCAR-4 ovarian = test system: OVCAR-4 ovarian
CCRF-CEM leukemia = test system: CCRF-CEM leukemia
MOLT-4 leukemia = test system: MOLT-4 leukemia
ACHN renal = test system: ACHN renal
SN12C renal = test system: SN12C renal
MDA-MB-435 = test system: MDA-MB-435
U251 CNS = test system: U251 CNS
KM12 colon = test system: KM12 colon
SNB-75 CNS = test system: SNB-75 CNS
BT-549 breast = test system: BT-549 breast
LOX IMVI melanoma = test system: LOX IMVI melanoma
K-562 leukemia = test system: K-562 leukemia
HCT-15 colon = test system: HCT-15 colon
OVCAR-8 ovarian = test system: OVCAR-8 ovarian
HOP-92 NSCLC = test system: HOP-92 NSCLC
SW-620 colon = test system: SW-620 colon
MCF7 breast = test system: MCF7 breast
MALME-3M melanoma = test system: MALME-3M melanoma
HCT-116 colon = test system: HCT-116 colon
SK-MEL-5 melanoma = test system: SK-MEL-5 melanoma
SK-MEL-28 melanoma = test system: SK-MEL-28 melanoma
COLO 205 colon = test system: COLO 205 colon
HL-60(TB) leukemia = test system: HL-60(TB) leukemia
RPMI-8226 leukemia = test system: RPMI-8226 leukemia
SR leukemia = test system: SR leukemia
MDA-MB-231 breast = test system: MDA-MB-231 breast
SF-295 CNS = test system: SF-295 CNS
PC-3 prostate = test system: PC-3 prostate
UO-31 renal = test system: UO-31 renal
NCI-H460 lung = test system: NCI-H460 lung
786-0 renal = test system: 786-0 renal
T-47D breast = test system: T-47D breast
NCI/ADR-RES ovarian = test system: NCI/ADR-RES ovarian
SK-OV-3 ovarian = test system: SK-OV-3 ovarian
TK-10 renal = test system: TK-10 renal
SNB-19 CNS = test system: SNB-19 CNS
HT29 colon = test system: HT29 colon
OVCAR-5 ovarian = test system: OVCAR-5 ovarian
RXF 393 renal = test system: RXF 393 renal
SF-539 CNS = test system: SF-539 CNS
DU-145 prostate = test system: DU-145 prostate
NCI-H23 lung = test system: NCI-H23 lung
IGROV1 ovarian = test system: IGROV1 ovarian
A498 renal = test system: A498 renal
HS 578T breast = test system: HS 578T breast
EKVX NSCLC = test system: EKVX NSCLC
OVCAR-3 ovarian = test system: OVCAR-3 ovarian
NCI-H522 lung = test system: NCI-H522 lung
UACC-257 melanoma = test system: UACC-257 melanoma
SF-268 CNS = test system: SF-268 CNS
CAKI-1 renal = test system: CAKI-1 renal
HOP-62 NSCLC = test system: HOP-62 NSCLC
A549 NSCLC = test system: A549 NSCLC
HCC-2998 colon = test system: HCC-2998 colon
SK-MEL-2 melanoma = test system: SK-MEL-2 melanoma
NCI-H226 lung = test system: NCI-H226 lung

Compound CN(CCCNC(=O)c1nn(C)c2c1Cc1ccccc1-2)CCCNC(=O)c1nn(C)c2c1Cc1ccccc1-2 has a TGI (M14 melanoma) of 14.5 µM, a TGI (UACC-62 melanoma) of 35.9 µM and a TGI (OVCAR-4 ovarian) of 32.5 µM. The TGI (CCRF-CEM leukemia) was 10.9 µM, the TGI (MOLT-4 leukemia) was 24.4 µM and the TGI (ACHN renal) was 31 µM. The TGI (SN12C renal) was 33.8 µM, the TGI (MDA-MB-435) was 27 µM and the TGI (U251 CNS) was 26.2 µM. The TGI (KM12 colon) was 35.4 µM, the TGI (SNB-75 CNS) was 31.5 µM and the TGI (BT-549 breast) was 47.2 µM. The TGI (LOX IMVI melanoma) was 21.1 µM, the TGI (K-562 leukemia) was 25.6 µM and the TGI (HCT-15 colon) was 40.4 µM. For the same compound, the TGI (OVCAR-8 ovarian) was 46 µM, the TGI (HOP-92 NSCLC) was 35 µM and the TGI (SW-620 colon) was 27.9 µM. The TGI (MCF7 breast) was 31.2 µM, the TGI (MALME-3M melanoma) was 37.2 µM and the TGI (HCT-116 colon) was 30.2 µM. The TGI (SK-MEL-5 melanoma) was 29.8 µM, the TGI (SK-MEL-28 melanoma) was 38.2 µM and the TGI (COLO 205 colon) was 30.2 µM. For the same compound, the TGI (HL-60(TB) leukemia) was 10.8 µM, the TGI (RPMI-8226 leukemia) was 35.9 µM and the TGI (SR leukemia) was > 100 µM. It also gave a TGI (MDA-MB-231 breast) of 36.1 µM, a TGI (SF-295 CNS) of 34.7 µM and a TGI (PC-3 prostate) of 34.1 µM. It also gave a TGI (UO-31 renal) of 5.58 µM, a TGI (NCI-H460 lung) of 37.6 µM and a TGI (786-0 renal) of 24.5 µM. The TGI (T-47D breast) was 61.8 µM, the TGI (NCI/ADR-RES ovarian) was > 68.9 µM and the TGI (SK-OV-3 ovarian) was 34.1 µM. The TGI (TK-10 renal) was 36.2 µM, the TGI (SNB-19 CNS) was 26.4 µM and the TGI (HT29 colon) was 31.6 µM. It also gave a TGI (OVCAR-5 ovarian) of 40.8 µM, a TGI (RXF 393 renal) of 34.3 µM and a TGI (SF-539 CNS) of 33.9 µM. For the same compound, the TGI (DU-145 prostate) was 32.4 µM, the TGI (NCI-H23 lung) was 47.3 µM and the TGI (IGROV1 ovarian) was 35 µM. It also gave a TGI (A498 renal) of 31.7 µM, a TGI (HS 578T breast) of 42.1 µM and a TGI (EKVX NSCLC) of 39.2 µM. The TGI (OVCAR-3 ovarian) was 38 µM, the TGI (NCI-H522 lung) was 40.6 µM and the TGI (UACC-257 melanoma) was 30.1 µM. It also gave a TGI (SF-268 CNS) of 37.9 µM, a TGI (CAKI-1 renal) of 35.5 µM and a TGI (HOP-62 NSCLC) of 26.8 µM. It also gave a TGI (A549 NSCLC) of 33.3 µM, a TGI (HCC-2998 colon) of 23.5 µM and a TGI (SK-MEL-2 melanoma) of 32 µM.

CCOC(=O)[C@@]1(C)CC(O)C(=O)N1C (stereo partly specified) was tested, and the TGI (M14 melanoma) was > 100 µM, the TGI (UACC-62 melanoma) was > 100 µM and the TGI (OVCAR-4 ovarian) was > 100 µM. For the same compound, the TGI (CCRF-CEM leukemia) was > 100 µM, the TGI (MOLT-4 leukemia) was > 100 µM and the TGI (ACHN renal) was > 100 µM. The TGI (SN12C renal) was > 100 µM, the TGI (MDA-MB-435) was > 100 µM and the TGI (U251 CNS) was > 100 µM. The TGI (KM12 colon) was > 100 µM, the TGI (BT-549 breast) was > 100 µM and the TGI (LOX IMVI melanoma) was > 100 µM. For the same compound, the TGI (HCT-15 colon) was > 100 µM, the TGI (OVCAR-8 ovarian) was > 100 µM and the TGI (HOP-92 NSCLC) was > 100 µM. The TGI (SW-620 colon) was > 100 µM, the TGI (MCF7 breast) was > 100 µM and the TGI (MALME-3M melanoma) was > 100 µM. The TGI (HCT-116 colon) was > 100 µM, the TGI (SK-MEL-5 melanoma) was > 100 µM and the TGI (SK-MEL-28 melanoma) was > 100 µM. For the same compound, the TGI (COLO 205 colon) was > 100 µM, the TGI (HL-60(TB) leukemia) was > 100 µM and the TGI (NCI-H226 lung) was > 100 µM. For the same compound, the TGI (RPMI-8226 leukemia) was > 100 µM, the TGI (SR leukemia) was > 100 µM and the TGI (MDA-MB-231 breast) was > 100 µM. The TGI (SF-295 CNS) was > 100 µM, the TGI (PC-3 prostate) was > 100 µM and the TGI (UO-31 renal) was > 100 µM. The TGI (786-0 renal) was > 100 µM, the TGI (T-47D breast) was > 100 µM and the TGI (NCI/ADR-RES ovarian) was > 100 µM. For the same compound, the TGI (SK-OV-3 ovarian) was > 100 µM, the TGI (TK-10 renal) was > 100 µM and the TGI (SNB-19 CNS) was > 100 µM. For the same compound, the TGI (HT29 colon) was > 100 µM, the TGI (OVCAR-5 ovarian) was > 100 µM and the TGI (RXF 393 renal) was > 100 µM. The TGI (SF-539 CNS) was > 100 µM, the TGI (DU-145 prostate) was > 100 µM and the TGI (NCI-H23 lung) was > 100 µM. For the same compound, the TGI (IGROV1 ovarian) was > 100 µM, the TGI (HS 578T breast) was > 100 µM and the TGI (EKVX NSCLC) was > 100 µM. The TGI (OVCAR-3 ovarian) was > 100 µM, the TGI (NCI-H522 lung) was > 100 µM and the TGI (UACC-257 melanoma) was > 100 µM. For the same compound, the TGI (SF-268 CNS) was > 100 µM, the TGI (CAKI-1 renal) was > 100 µM and the TGI (HOP-62 NSCLC) was > 100 µM. For the same compound, the TGI (A549 NSCLC) was > 100 µM, the TGI (HCC-2998 colon) was > 100 µM and the TGI (SK-MEL-2 melanoma) was > 100 µM.

Reference: PubChem BioAssay (NCI)
